As a reminder, the pIC50 is −log10 of the IC50, conventionally taken in molar units.

The text below walks through data of patent publication US10849881B2, “Octahydro-cyclobuta[1,2-c;3,4-c′]dipyrrol-2-yl” (Hoffmann-La Roche Inc., priority 2013, dated 2020).

pIC50: −log10 of the molar value.

The test deals with ATX (human His-tagged) (Homo sapiens (Human), UniProt Q13822). Description: Human ATX enzyme inhibition assay (fluorescence quenching, MR121 substrate). The format is biochemical. The conditions noted are these: 30 nM ATX, 1 μM MR121 substrate, 30° C., pH 8.0. The method in brief:
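Fluorescence quenching assay with MR121/tryptophan-labelled substrate analogue in Tris-HCl buffer (140 mM NaCl, CaCl2, MgCl2, 0.01% Triton X-100, pH 8.0). Serially diluted compounds were preincubated 15 min at 30 °C with 30 nM ATX (final), then 1 µM substrate (final) added and incubated 15 min at 30 °C.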
In the case of `O=C(c1ccc2[nH]nnc2c1)N1C[C@@H]2[C@H](C1)[C@H]1CN(C(=O)c3cc(OCC(F)(F)F)c(C4CC4)cn3)C[C@@H]21` [Example 1.094, (1H-benzotriazol-5-yl)-{(3aS,3bR,6aS,6bR)-5-[5-cyclopropyl-4-(2,2,2-trifluoro-ethoxy)-pyridine-2-carbonyl]-octahydro-cyclobuta[1,2-c;3,4-c′]dipyrrol-2-yl}-methanone], the pIC50 was 7.11.
Then `O=C(c1ccc2[nH]nnc2c1)N1CC2C(C1)C1CN(C(=O)c3cc(OCC(F)(F)F)c(C4CC4)nn3)CC21` (stereo not shown) [Example 1.095], with 7.49; and `CCOc1cc(C(=O)N2C[C@@H]3[C@H]4CN(C(=O)c5ccc6[nH]nnc6c5)C[C@H]4[C@@H]3C2)nc2ccc(Cl)cc12` [Example 1.096, [(3aR,3bS,6aR,6bS)-5-(1H-benzotriazole-5-carbonyl)-octahydro-cyclobuta[1,2-c;3,4-c′]dipyrrol-2-yl]-(6-chloro-4-ethoxy-quinolin-2-yl)-methanone], with 7.92.
The compound `O=C(c1ccc2[nH]nnc2c1)N1C[C@@H]2[C@H](C1)[C@H]1CN(C(=O)c3ccc(C(F)(F)F)c(OCC(F)(F)F)n3)C[C@@H]21` [Example 1.097, (1H-benzotriazol-5-yl)-{(3aS,3bR,6aS,6bR)-5-[6-(2,2,2-trifluoro-ethoxy)-5-trifluoromethyl-pyridine-2-carbonyl]-octahydro-cyclobuta[1,2-c;3,4-c′]dipyrrol-2-yl}-methanone] gave a pIC50 of 7.60.
Then `O=C(c1ccc2[nH]nnc2c1)N1C[C@@H]2[C@H](C1)[C@H]1CN(C(=O)c3cccc(OCC(F)(F)F)n3)C[C@@H]21` [Example 1.098, (1H-benzotriazol-5-yl)-{(3aS,3bR,6aS,6bR)-5-[6-(2,2,2-trifluoro-ethoxy)-pyridine-2-carbonyl]-octahydro-cyclobuta[1,2-c;3,4-c′]dipyrrol-2-yl}-methanone], with 6.07.
As for `O=C(c1ccc(OCC(F)(F)F)nc1)N1C[C@@H]2[C@H](C1)[C@H]1CN(C(=O)c3ccc4[nH]nnc4c3)C[C@@H]21` [Example 1.099, (1H-benzotriazol-5-yl)-{(3aS,3bS,6aR,6bR)-5-[6-(2,2,2-trifluoro-ethoxy)-pyridine-3-carbonyl]-octahydro-cyclobuta[1,2-c;3,4-c′]dipyrrol-2-yl}-methanone], the figure is 6.56.
As for `O=C(c1cnc(OCC(F)(F)F)c(Br)c1)N1C[C@@H]2[C@H](C1)[C@H]1CN(C(=O)c3ccc4[nH]nnc4c3)C[C@@H]21` [Example 1.100, (1H-benzotriazol-5-yl)-{(3aS,3bS,6aR,6bR)-5-[5-bromo-6-(2,2,2-trifluoro-ethoxy)-pyridine-3-carbonyl]-octahydro-cyclobuta[1,2-c;3,4-c′]dipyrrol-2-yl}-methanone], the figure is 8.00; as for `O=C(c1ccc2[nH]nnc2c1)N1C[C@@H]2[C@H](C1)[C@H]1CN(C(=O)c3ccc(OCC(F)(F)F)cn3)C[C@@H]21` [Example 1.101, (1H-benzotriazol-5-yl)-{(3aS,3bR,6aS,6bR)-5-[5-(2,2,2-trifluoro-ethoxy)-pyridine-2-carbonyl]-octahydro-cyclobuta[1,2-c;3,4-c′]dipyrrol-2-yl}-methanone], 5.35.
Compound `Cc1ccc(C(=O)N2C[C@@H]3[C@H](C2)[C@H]2CN(C(=O)c4ccc(OCC5CC5)nn4)C[C@@H]32)cc1C` [Example 1.102, [(3aS,3bR,6aS,6bR)-5-(6-cyclopropylmethoxy-pyridazine-3-carbonyl)-octahydro-cyclobuta[1,2-c;3,4-c′]dipyrrol-2-yl]-(3,4-dimethyl-phenyl)-methanone] showed a pIC50 of 6.00.
Then `O=C(c1cnc(OCC(F)(F)F)c(C2CC2)c1)N1C[C@@H]2[C@H](C1)[C@H]1CN(C(=O)c3ccc4[nH]nnc4c3)C[C@@H]21` [Example 1.104, (1H-benzotriazol-5-yl)-{(3aS,3bS,6aR,6bR)-5-[5-cyclopropyl-6-(2,2,2-trifluoro-ethoxy)-pyridine-3-carbonyl]-octahydro-cyclobuta[1,2-c;3,4-c′]dipyrrol-2-yl}-methanone], with 8.00.
